Results on 1 compound are retold here after patent US5256820A, “1-alkyl-2-acyl-1,2-disulfonylhydrazines” (Yale University, priority 1991, dated 1993).

Test [1] in a line: Prodrug activation by GSH, methanol generation determined using alcohol oxidase. The procedure: Our belief is confirmed by the following experiment in which we incubated a solution of 2-benzoyl-1,2-bis(methylsulfonyl)-1-methylhydrazine (R=C6 H5) in phosphate buffer (pH 7.4) at 37° C. in the presence and absence of GSH. The amount of methanol generated in 10 min, determined using alcohol oxidase by methodology described by Penketh et al. (1990) 33:730-732, was used as a measure of activation of the prodrug. In the presence of 1 mM GSH, the amount of methanol generated increased approximately 10-fold, relative to that occurring in phosphate buffer alone. […] In the case of the 1-(2-chloroethyl) derivative (the compound of Example 6), 22although precise quantitation was difficult due to the limitations of the assay, the compound of Example 6 gave a 6- to 7-fold greater amount of alkylated product when reacted with the nucleophile 4-(4'-nitrobenyl)pyridine in the presence of 5 mM GSH for 30 min at 37° C. than in its absence.

The test system of test [2] is GST (glutathione-S-transferase), equine liver enzyme. Description: GST-catalyzed GSH activation of prodrug. The format is biochemical. To be noted: 13.5 units/ml equine liver GST. The source says:
Therefore, tumors resistant to conventional chloroethylating agents because of the protective effect conferred by high levels of intracellular thiols, may be more sensitive to 2-acyl-1,2-bis(methylsulfonyl)-1-methyl (or 2-chloroethyl)hydrazines. […] Although elevation of GST levels has been associated with increased resistance to a variety of alkylating agents, such a change is expected to increase sensitivity to the thiol-activated prodrugs.

With `CN(N(C(=O)c1ccccc1)S(C)(=O)=O)S(C)(=O)=O` [2-benzoyl-1,2-bis(methylsulfonyl)-1-methylhydrazine], the “increase in amount of methanol generated relative to phosphate buffer alone” value in test [1] (1 mM GSH, 10 min, phosphate buffer pH 7.4, 37° C.) is “approximately 10 fold”. The “dependence of rate of activation on GSH concentration (in words)” value in test [1] (GSH) is listed as “directly proportional to the GSH concentration”. Moreover, the “effect of GST on GSH activation rate (in words)” value in test [2] was “doubling the activation rate”.
